How the values were obtained:
Format in all cases: in vivo
Blattella germanica = experiment: Pesticidal test against Blattella germanica (petri dish dry film); conditions: 24 h, concentration 100 ppm, female adults, examined after 1 day, 25° C., read-out: pesticidal rate
Method in brief: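 Acetone solution of test compound at a predetermined concentration dried as a film in a 9 cm petri dish; female adult cockroaches released onto it and kept at 25° C. Living and dead counted after 1 day; five insects per group, two replicates.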

Ctenocephalides Felis [1] = experiment: Insecticidal test for Ctenocephalides felis, Test Example 3 (dry film in glass tube, 0.96 ml, Table A5); conditions: adults of Ctenocephalides felis, after 24 hours of exposure, in triplicate
Experimental: Insecticidal Test for Ctenocephalides felis
0.96 ml of a solution of acetone, the active ingredient, prepared to the prescribed concentration was added dropwise to a glass tube with a flat bottom (internal diameter: 3.6 cm, height: 12 cm), and the solvent was evaporated at room temperature to form a dry film of the agent on the bottom surface. About 10 adults of Ctenocephalides felis per glass tube were added, and they were contact-exposed to the test compound. After 24 hours of the exposure, the conditions of the adults were examined and classified into “alive” and “dead (including a moribund condition)” to determine the death rate was determined (in triplicate).
As the comparative compounds, the following Compounds (D) and (E) disclosed in WO2009/080203, and fipronil were used.

Rhipicephalus sanguineus = experiment: Insecticidal test for Rhipicephalus sanguineus (treated glass petri dish, Table A6); conditions: adults of Rhipicephalus sanguineus, 18 hour exposure, examined after 48 hours, in single
Experimental: Insecticidal Test for Rhipicephalus sanguineus
0.5 ml of a solution of acetone, the active ingredient, prepared to the prescribed dose was added dropwise into a glass petri dish with a diameter of 10 cm, and the acetone was evaporated at room temperature. About 10 adults of Rhipicephalus sanguineus per dish were added, and the dish was covered by another glass petri dish that was treated with the active ingredient in the same manner described above. After 18 hour exposure to the test substance, the adults were transferred into a glass petri dish that was not treated with the active ingredient. After 48 hours of the exposure, the conditions of the adults were examined and classified into “alive” and “dead (including a moribund condition)” to determine the death rate (in single).
As the comparative compounds, said Compounds (B), (C), and (D), and the following Compound (F) disclosed in WO2009/080203, and fipronil were used.

Ctenocephalides Felis [2] = experiment: Insecticidal test for Ctenocephalides felis, Test Example 1 (dry film in glass tube, 0.5 ml, Table A4); conditions: adults

| Compound | pest or weed control at 100 ppm (Blattella germanica) [%] | death rate (Ctenocephalides Felis [1]; 0.03 μg/ml) [%] | death rate (Ctenocephalides Felis [1]; 0.1 μg/ml) [%] | death rate (Rhipicephalus sanguineus; 0.0431 mg/m^2) [%] | death rate (Rhipicephalus sanguineus; 0.0861 mg/m^2) [%] | death rate (Rhipicephalus sanguineus; 0.172 mg/m^2) [%] | effect in the examination after 12 hours of the exposure (Ctenocephalides Felis [2]) |
| --- | --- | --- | --- | --- | --- | --- | --- |
| CN(C(=O)c1ccccc1)c1cccc(C(=O)Nc2c(Br)cc(C(F)(C(F)(F)F)C(F)(F)F)cc2C(F)(F)F)c1F [7-1574, N-(2-bromo-4-(perfluoropropan-2-yl)-6-(trifluoromethyl)phenyl)-2-fluoro-3-(N-methylbenzamide)benzamide] | ≥ 70 | 72.0 | 98.9 | 10.0 | 100.0 | 100.0 | effective |
| CN(C(=O)c1ccc(F)cc1)c1cccc(C(=O)Nc2c(I)cc(C(F)(C(F)(F)F)C(F)(F)F)cc2C(F)(F)F)c1F [7-1733, 2-fluoro-3-(4-fluoro-N-methylbenzamide)-N-(2-iodo-4-(perfluoropropan-2-yl)-6-(trifluoromethyl)phenyl)benzamide] | ≥ 70 | 21.1 | 91.6 | 0.0 | 80.0 | 100.0 |  |

Reference: patent US8686044B2, “Amide derivative, pest control agent containing the amide derivative, and use of the amide derivative” (Mitsui Chemicals Agro, Inc., priority 2008, dated 2014)
